Measured values taken from patent US20230174464A1, “MYRISTOYL DERIVATIVES OF 9-AMINO-DOXYCYCLINE FOR TARGETING CANCER STEM CELLS AND PREVENTING METASTASIS” (LUNELLA BIOTECH, INC., priority 2020, published 2023).
Read-outs that look alike come from different tables or passages of the source.

Columns and labels:
MCF7 CSCs = assay: 3D-mammosphere formation assay; type: cell-based, human; settings: for IC50: 5 days, non-adherent conditions, read-out: IC50 for inhibiting 3D anchorage-independent propagation (mammosphere formation)
Protocol: For the 3D-Mammosphere Assay, a single cell suspension of MCF7 cells was prepared using enzymatic (lx Trypsin-EDTA, Sigma Aldrich) and manual disaggregation (25-gauge needle). Cells were then plated at a density of 500 cells/cm^2 in mammosphere medium (DMEM-F12/B27/EGF (20-ng/ml)/PenStrep) in non-adherent conditions, in culture dishes coated with (2-hydroxyethylmethacrylate) (poly-HEMA, Sigma). Cells were grown for 5 days and maintained in a humidified incubator at 37° C. at an atmospheric pressure in 5% (v/v) carbon dioxide/air. After 5 days in culture, spheres>50 μm were counted using an eye-piece graticule, and the percentage of cells plated which formed spheres was calculated and is referred to as percent mammosphere formation, normalized to vehicle-alone treated controls. Mammosphere assays were performed in triplicate and repeated three times independently.

E. coli (ATCC 25922) = assay: Bacterial growth assay (broth microdilution, resazurin); type: cell-based, Escherichia coli; settings: Gram-negative, 100-0.78 μM
Protocol: (§1) Bacterial Growth Assays: Briefly, antibiotic activity was assessed using standard assay systems. The antibiotic activity of Doxycycline analogues was determined experimentally, using Resazurin (R7017; Sigma-Aldrich, Inc.) as a probe, in a 96-well plate format, using standard strains of E. coli and S. aureus. The minimum inhibitory concentration (MIC) for the studied compounds was determined using the broth microdilution method, the reference susceptibility test for rapidly growing aerobic or facultative microorganism. The assays were performed according to the Clinical and Laboratory Standards Institute (CLSI) guidelines. The test compounds and positive control (doxycycline, Sigma Aldrich #D1822) stock solutions were prepared at 25 mM in DMSO and serially diluted (2-fold dilution from 200-1.56 tiM) in cation adjusted Mueller Hinton Broth (MHB, Sigma Aldrich #90922) in 96 well transparent plates (VWR #734-2781) into a final volume of 50 μL/well. Staphylococcus aureus (ATCC 29213) and E. coli (ATCC 25922) cultures were grown overnight at 37° C. in Mueller Hinton Agar (MHA, Sigma Aldrich #70191). A single colony of each strain was then grown overnight at 37° C. in MHB until OD600˜0.6-0.8 and further diluted into MHB to a concentration of […] colony forming units (CFU)/mL, which was equivalent to an OD600˜0.01. Then, 50 μL of the diluted inoculums was transferred to the wells of the previously prepared 96-well plates containing the test compounds, negative control (1% DMSO in MHB) and positive control (doxycycline). Final wells volume was 100 μL, final concentrations for the testing compounds were between 100-0.78 μM and final microorganism concentration was 5×10^5 CFU/mL. Subsequently, 10 uL of one negative control well was plated in a petri dish containing MHA to check CFU and the purity of the cultures. The plates were incubated at 37° C. for 24 h after which 20 tit of resazurin solution (0.2 mg/mL) was added to the wells followed by 1 h30 min incubation at 37° C. The OD570 and OD600 were measured in a microplate reader (BMG FLUOstar Omega). […] MIC values were determined by three independent experiments.

[1] = system: Staphylococcus aureus (ATCC 29213); assay: as above; type: cell-based; settings: S. aureus, Gram-positive, 100-0.78 μM
Protocol: as §1

MCF7 cells [2] = assay: Cell viability (SRB) assay, MCF7 2D-monolayers; type: cell-based, human; settings: 3 days, 5 to 20 μM
Protocol: (§2) Cell Viability Assay: The Sulphorhodamine (SRB) assay is based on the measurement of cellular protein content. After treatment for 72 h in 96-well plates, (8,000 cells/well), cells were fixed with 10% trichloroacetic acid (TCA) for 1 hour in the cold room, and were dried overnight at room temperature. Then, cells were incubated with SRB for 15 min, washed twice with 1% acetic acid, and air dried for at least 1 hour. Finally, the protein-bound dye was dissolved in a 10 mM Tris, pH 8.8, solution and read using the plate reader at 540-nm.

[3] = system: normal human fibroblasts (hTERT-BJ1); assay: Cell viability (SRB) assay, normal fibroblasts 2D-monolayers; type: cell-based; settings: hTERT-BJ1 2D-monolayers, 3 days, 5 to 20 μM
Protocol: as §2

MCF7 cells [4] = assay: Cell proliferation, xCELLigence RTCA; type: cell-based, human; settings: MCF7 2D-monolayers, relative to control (no treatment)
Protocol: Cell Proliferation: Briefly, MCF7 cells or hTERT-BJ1 fibroblasts were seeded in each well (10,000 cells/well) and employed to assess the efficacy of Doxycycline and Doxy-Myr, using RTCA (real-time cell analysis), via the measurement of cell-induced electrical impedance plate (Acea Biosciences Inc.). This approach allows the quantification of the onset and kinetics of the cellular response. Experiments were repeated several times independently, using quadruplicate samples for each condition.

MCF7 cells [5] = assay: Cell cycle analysis (FACS); type: cell-based, human; settings: MCF7 2D-monolayers, 72 hours, 10 μM
Protocol: Cell Cycle Analysis: Performed on MCF7 cells treated with Doxycycline, Doxy-Myr or vehicle-alone. Briefly, after trypsinization, the re-suspended cells were incubated with 10 ng/ml of Hoechst solution (Thermo Fisher Scientific) for 40 min at 37° C. under dark conditions. Following a 40 min period, the cells were washed and re-suspended in PBS Ca/Mg for acquisition on the Attune NxT flow cytometer (Thermo Scientific). 10,000 events per condition were analyzed. Gated cells were manually-categorized into cell-cycle stages.

chick embryo = assay: CAM assay, embryo tolerability / toxicity; type: in vivo; settings: for Alive / Dead: number of embryos
Protocol: a) Preparation of Chicken Embryos. […] At that moment (E9), the chorioallantoic membrane (CAM) was dropped down by drilling a small hole through the eggshell into the air sac, and a 1 cm^2 window was cut in the eggshell above the CAM.
e) Embryo Tolerability Assay. Before each administration, the treatment tolerability was evaluated by scoring the number of dead embryos.

[6] = system: CSC burden in early breast cancer patients; settings: oral 200 mg/day for 14 days; cited from earlier work

Compound	IC50 (MCF7 CSCs; Homo sapiens, MCF7, 120 h) [µM]	antibiotic activity (growth inhibition) (E. coli (ATCC 25922))	antibiotic activity (growth inhibition) [1]	effect on cell viability (MCF7 cells [2])	effect on cell viability [3]	effect on proliferation (MCF7 cells [4])	% Dead (chick embryo; 0.125 mM) [%]	Dead (chick embryo; 0.125 mM)	% Dead (chick embryo; 0.250 mM) [%]	Dead (chick embryo; 0.250 mM)	other results
CCCCCCCCCCCC(=O)Nc1ccc2c(c1O)C(=O)C1=C(O)[C@]3(O)C(=O)C(C(N)=O)=C(O)[C@@H](N(C)C)C3[C@@H](O)C1[C@H]2C (stereo partly drawn) [Doxy-Laur, (4S,5S,6R,12aS)-4-(dimethylamino)-9-(dodecanoylamino)-3,5,10,12,12a-pentahydroxy-6-methyl-1,11-dioxo-4a,5,5a,6-tetrahydro-4H-tetracene-2-carboxamide]	5.8	did not show any antibiotic activity	did not show any antibiotic activity								
CCCCCCCCCCCCCC(=O)Nc1ccc2c(c1O)C(=O)C1=C(O)[C@]3(O)C(=O)C(C(N)=O)=C(O)[C@@H](N(C)C)C3[C@@H](O)C1[C@H]2C (stereo partly drawn) [Doxy-Myr, (4S,5S,6R,12aS)-4-(dimethylamino)-3,5,10,12,12a-pentahydroxy-6-methyl-1,11-dioxo-9-(tetradecanoylamino)-4a,5,5a,6-tetrahydro-4H-tetracene-2-carboxamide]		did not show any antibiotic activity	did not show any antibiotic activity	no appreciable effects on cell viability	no appreciable effects on cell viability	did not inhibit the proliferation	21.43	3	7.69	1	IC50 (MCF7 CSCs): 3.46 µM; effect on cell cycle progression (MCF7 cells [5]): did not have any significant effects on reducing cell cycle progression; % Alive (chick embryo; 0.125 mM): 78.57%; Alive (chick embryo; 0.125 mM): 11; % Alive (chick embryo; 0.250 mM): 92.31%; Alive (chick embryo; 0.250 mM): 12; embryo toxicity (chick embryo; CAM assay): little-to-no embryo toxicity
CCCCCCCCCCCCCCCC(=O)Nc1ccc2c(c1O)C(=O)C1=C(O)[C@]3(O)C(=O)C(C(N)=O)=C(O)[C@@H](N(C)C)C3[C@@H](O)C1[C@H]2C (stereo partly drawn) [Doxy-Pal, (4S,5S,6R,12 aS)-4-(dimethylamino)-9-(hexadecanoylamino)-3,5,10,12,12a-pentahydroxy-6-methyl-1,11-dioxo-4a,5,5 a,6-tetrahydro-4H-tetracene-2-carboxamide]	10.4	did not show any antibiotic activity	did not show any antibiotic activity								
C[C@H]1c2ccc(NC(=O)CCCCC[P+](c3ccccc3)(c3ccccc3)c3ccccc3)c(O)c2C(=O)C2=C(O)[C@]3(O)C(=O)C(C(N)=O)=C(O)[C@@H](N(C)C)C3[C@@H](O)C21.C[C@H]1c2ccc(NC(=O)CCCCC[P+](c3ccccc3)(c3ccccc3)c3ccccc3)c(O)c2C(=O)C2=C(O)[C@]3(O)C(=O)C(C(N)=O)=C(O)[C@@H](N(C)C)C3[C@@H](O)C21.O=C([O-])C(=O)[O-] (stereo partly shown) [Doxy-TPP]											inhibitory potency compared with Doxycycline (MCF7 CSCs): not more potent that Doxycycline
C[C@H]1c2cccc(O)c2C(=O)C2=C(O)[C@]3(O)C(=O)C(C(N)=O)=C(O)[C@@H](N(C)C)C3[C@@H](O)C21 (stereo partly drawn) [Doxycycline, (4S,5 S,6R,12aS)-4-(dimethylamino)-3,5,10,12,12a-pentahydroxy-6-methyl-1,11-dioxo-4a,5,5 a,6-tetrahydro-4H-tetracene-2-carboxamide]		potently and effectively inhibits the growth	potently and effectively inhibits the growth	no appreciable effects on cell viability	no appreciable effects on cell viability	did not inhibit the proliferation	15.38	2	23.08	3	embryo toxicity (chick embryo; in vivo): little-to-no embryo toxicity; positive response rate [6]: ~90%
